From patent US20160060260A1, “BROMODOMAIN INHIBITORS FOR TREATING DISEASE” (Board of Regents, The University of Texas System, priority 2014, published 2016)

target: T1, Recombinant human His-tagged Trim24-PHD-bromodomain (Homo sapiens, UniProt O15164); test: Trim24 AlphaScreen Assay; type: binding; conditions: 5 nM Trim24 protein, 15 nM biotinylated H3K23ac (1-33aa) peptide
T1 construct: Recombinant human His-tagged Trim24-PHD-bromodomain (produced in-house); made in house
T1 sequence (O15164 824-1006 limits assumed): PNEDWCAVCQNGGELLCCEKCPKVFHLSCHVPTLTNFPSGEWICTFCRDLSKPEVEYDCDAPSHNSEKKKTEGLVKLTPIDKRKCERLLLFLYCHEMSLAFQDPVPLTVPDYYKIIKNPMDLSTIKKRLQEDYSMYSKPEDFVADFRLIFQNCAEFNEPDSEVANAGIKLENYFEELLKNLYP
In short: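 AlphaScreen read-out after 2 h with streptavidin donor and Ni-chelate acceptor beads at 10 ug/mL each, following 1 h room-temperature incubation of compound, His-tagged PHD-bromodomain protein and biotin-H3K23ac (1-33aa) peptide in Hepes pH 7.5 buffer with NaCl and Triton X-100. Signals normalised between no-compound and no-protein wells; IC50 from four-parameter logistic curves.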

Row | IC50 [nM] | SMILES
1 | 100 to 1000 | Cc1nc(S(=O)(=O)Nc2cc3c(cc2Oc2cccc(OCC4CCNCC4)c2)n(C)c(=O)n3C)cn1C [Example 229, N-(1,3-dimethyl-2-oxo-6-(3-(piperidin-4-ylmethoxy)phenoxy)-2,3-dihydro-1H-benzo[d]imidazol-5-yl)-1,2-dimethyl-1H-imidazole-4-sulfonamide]
2 | 10 to 100 | Cc1nc(S(=O)(=O)Nc2cc3c(cc2Oc2cccc(OCC4CC4)c2)n(C)c(=O)n3C)cn1C [Example 58, N-(6-(3-(cyclopropylmethoxy)phenoxy)-1,3-dimethyl-2-oxo-2,3-dihydro-1H-benzo[d]imidazol-5-yl)-1,2-dimethyl-1H-imidazole-4-sulfonamide]
3 | 100 to 1000 | Cn1cnc(S(=O)(=O)Nc2cc3c(cc2Oc2cccc(OCC4(C)CO4)c2)n(C)c(=O)n3C)c1 (stereo not drawn) [Example 236, N-(1,3-dimethyl-6-(3-((2-methyloxiran-2-yl)methoxy)phenoxy)-2-oxo-2,3-dihydro-1H-benzo[d]imidazol-5-yl)-1-methyl-1H-imidazole-4-sulfonamide]
4 | 10 to 100 | CCCOc1cccc(Oc2cc3c(cc2NS(=O)(=O)c2cnn(C)c2C)n(C)c(=O)n3C)c1 [Example 91, N-(1,3-dimethyl-2-oxo-6-(3-propoxyphenoxy)-2,3-dihydro-1H-benzo[d]imidazol-5-yl)-1,5-dimethyl-1H-pyrazole-4-sulfonamide]
5 | 100 to 1000 | Cn1cnc(S(=O)(=O)Nc2cc3c(cc2Oc2cccc(OCc4cccnc4)c2)n(C)c(=O)n3C)c1 [Example 39, N-(1,3-dimethyl-2-oxo-6-(3-(pyridin-3-ylmethoxy)phenoxy)-2,3-dihydro-1H-benzo[d]imidazol-5-yl)-1-methyl-1H-imidazole-4-sulfonamide]
6 | 100 to 1000 | Cn1c(=O)n(C)c2cc(Oc3cccc(OCC4CC4)c3)c(NS(=O)(=O)c3cn[nH]c3)cc21 [Example 132, N-(6-(3-(cyclopropylmethoxy)phenoxy)-1,3-dimethyl-2-oxo-2,3-dihydro-1H-benzo[d]imidazol-5-yl)-1H-pyrazole-4-sulfonamide]
7 | 100 to 1000 | C=CCOc1cccc(Oc2cc3c(cc2NS(=O)(=O)c2ccc(OC)c(NC(C)=O)c2)n(C)c(=O)n3C)c1 [Example 143, N-(5-(N-(6-(3-(allyloxy)phenoxy)-1,3-dimethyl-2-oxo-2,3-dihydro-1H-benzo[d]imidazol-5-yl)sulfamoyl)-2-methoxyphenyl)acetamide]
8 | 100 to 1000 | CCCOc1cc(OCCCOC)cc(Oc2cc3c(cc2NS(=O)(=O)c2cccc(C(C)C)c2)n(C)c(=O)n3C)c1 [Example 164, 3-isopropyl-N-(6-(3-(3-methoxypropoxy)-5-propoxyphenoxy)-1,3-dimethyl-2-oxo-2,3-dihydro-1H-benzo[d]imidazol-5-yl)benzenesulfonamide]
9 | 100 to 1000 | CCCOc1cc(OCCCOC)cc(Oc2cc3c(cc2NS(=O)(=O)C2CC2)n(C)c(=O)n3C)c1 [Example 150, N-(6-(3-(3-methoxypropoxy)-5-propoxyphenoxy)-1,3-dimethyl-2-oxo-2,3-dihydro-1H-benzo[d]imidazol-5-yl)cyclopropanesulfonamide]
10 | 100 to 1000 | Cn1cc(S(=O)(=O)Nc2cc3c(cc2Oc2cccc(OCc4ccccc4)c2)n(C)c(=O)n3C)cn1 [Example 25, N-(6-(3-(benzyloxy)phenoxy)-1,3-dimethyl-2-oxo-2,3-dihydro-1H-benzo[d]imidazol-5-yl)-1-methyl-1H-pyrazole-4-sulfonamide]

Row | SMILES | IC50 [nM]
11 | CCCOc1cc(OCCCCN2CCCC2)cc(Oc2cc3c(cc2NS(=O)(=O)c2ccc(OC)c(OC)c2)n(C)c(=O)n3C)c1 [Example 250, N-(1,3-dimethyl-2-oxo-6-{3-propoxy-5-[4-(pyrrolidin-1-yl)butoxy]phenoxy}-2,3-dihydro-1H-1,3-benzodiazol-5-yl)-3,4-dimethoxybenzene-1-sulfonamide] | 10 to 100
12 | CCCOc1cc(OCCCCN)cc(Oc2cc3c(cc2NS(=O)(=O)c2cccc(C(=O)OC)c2)n(C)c(=O)n3C)c1 [Example 252, Methyl 3-({6-[3-(4-aminobutoxy)-5-propoxyphenoxy]-1,3-dimethyl-2-oxo-2,3-dihydro-1H-1,3-benzodiazol-5-yl}sulfamoyl)benzoate] | 10 to 100
